Legend:
red blood cells (RBCs) = assay: Hemolysis assay; format: cell-based, human; conditions: 0.1% SDS + distilled water; 4 h room temperature; absorbance 450 nm
Method: The hemolysis test was performed as standard protocol. A 1.5 mL heparin blood sample was obtained from a healthy volunteer in our laboratory. The red blood cells (RBCs) were collected by centrifugation of blood samples at 3000 rpm for 15 min and then were washed three times with PBS. The RBC pellet was resuspended in a 10 mL phosphate-buffer solution (PBS). A 100 µL/well of different concentrations of peptides were added into a 96-well plate (2000 µg/mL, 1000 µg/mL, 500 µg/mL, 250 µg/mL, 125 µg/mL, 62.5 µg/mL, 31.25 µg/mL, 15.62 µg/mL, 7.8 µg/mL). For positive hemolysis control 100 µL/well of 0.1% sodium dodecyl sulfate and distilled water, and for negative hemolysis control 100 µL/well of PBS were added into the appropriated wells. After that, 100 µL RBC suspension was added into all the wells. The plate was incubated at room temperature for 4 h. Then the 100 µL supernatant of each well was carefully transferred to a new 96-well plate. The solution absorbance was investigated by a UV–Vis instrument at 450 nm.

[1] = Hydroxyl radical scavenging activity assay; format: biochemical; conditions: positive control, 0.5 mM solution; UV-Vis 510 nm
Excerpt: Hydroxyl radical is one of the strong reactive oxygen species in biological systems that react with the unsaturated fatty acid of phospholipids of the cell membrane and cause cell damage[36]–[38]. To assess the efficacy of peptides in countering hydroxyl radicals, we subjected them to a hydroxyl radical-scavenging activity assay, indicating their scavenging potential across a range of concentrations. The method for preparing the test samples, reagents, and control samples for the hydroxyl scavenging activity assay is as follows: initially, peptide samples at 10 mg/mL concentration were dissolved in ethanol, and subsequently, diluted concentrations of 2, 4, 6, and 8 mg/L were obtained from this solution. The assay reagent includes 6 mM hydrogen peroxide and 6 mM ferrous sulfate in ethanol. A solution of ascorbic acid with 0.5 mM concentration has been prepared as a positive control and a solution without the peptide sample is considered as negative control. […] After 30 min, the UV–Vis absorbance was determined at 510 nm. The determination of hydroxyl radical scavenging activity for the peptide samples was executed as follows:2 Hydroxyl radical scavenging activity%=A0-A1/A0×100, where A0 is the absorbance of the negative control (solution without the peptide sample) and A1 is the absorbance of the peptide samples.

[2] = DPPH scavenging activity assay; format: biochemical; conditions: compared among six synthesized peptides and with ascorbic acid 0.5 mM
Method: A straightforward and expeditious approach for quantifying the antioxidant activity of antioxidants involves employing the 2,2-diphenyl-1-picrylhydrazyl (DPPH) assay, a spectrophotometric technique[36]–[38]. Preparation of the test sample, reagent, and control sample in the DPPH assay is as follows: peptide samples with a concentration of 10 mg/mL were prepared in ethanol and then were diluted in 2, 4, 6, and 8 mg/L concentrations. The DPPH solution is prepared with a concentration of 0.02% (w/v) in methanol. A solution of 0.5 mM ascorbic acid has been prepared as a positive control, and methanol is considered as the negative control sample. The peptide sample (250 μL) with DPPH solution (250 μL) in ethanol (1.0 mL) was mixed and stirred in the dark for 30 min at room temperature. The solutions were analyzed using a UV–Vis instrument (Varian, Cary 100) at 517 nm. The calculation of antioxidant activity percentage is reported as the following equation:1 DPPH scavenging activity%=A0-A1/A0×100.
In Eq. (1), A0 is the absorbance of the negative control (methanol) and A1 is the optical absorbance of the peptide samples.

| Compound | DPPH free radical scavenging activity, in words [2] | other results |
| --- | --- | --- |
| CCCCCCCCCCCCOS(=O)(=O)[O-].[Na+] [SDS, sodium dodecyl sulfate] |  | Hemolysis, OD value of positive control (red blood cells (RBCs)): 2.21 |
| O=C1O[C@H]([C@@H](O)CO)C(O)=C1O [ascorbic acid] |  | Hydroxyl radical scavenging activity [1]: 93.9% |
| LHHWY [GP12, ML-generated antioxidant peptide LHHWY, synthesized] | highest free radical scavenging activity |  |
| YWHW [GP9, ML-generated antioxidant peptide YWHW, synthesized] | highest free radical scavenging activity |  |
| YWYHF [GP10, ML-generated antioxidant peptide YWYHF, synthesized] | highest free radical scavenging activity |  |

Reference: publication PMC10948870, “De novo antioxidant peptide design via machine learning and DFT studies” (Scientific Reports, 2024)
